The record followed here is patent US20250367209A1 (SOUTHERN RESEARCH INSTITUTE, priority 2022, published 2025).

The test system of one assay is primary neurons. Nature of the assay: Multi-electrode array, Aβ-induced network hyperexcitability. As to conditions: one hour preincubation, 500 nM Aβ oligomers, four hours. The assay is classed as cell-based, rat. An excerpt:
Primary neuron cultures: All animal procedures were approved by the Institutional Animal Care and Use Committee at the University of Alabama at Birmingham (UAB). As before (Rush, et al. (2020) Neurobiol Dis 134, 104668; Voskobiynyk, et al. (2020) eLife 9, e57354), primary rat neurons were isolated from timed-pregnant Sprague-Dawley rats. Briefly, dams were euthanized with isoflurane anesthesia asphyxiation, and hippocampal tissue was isolated from E19 embryos in Hibernate E, then digested in papain for 10 minutes at 37° C. Neurons were triturated into a single cell suspension in Neurobasal supplemented with B-27, L-Glutamine, and 10% FBS, then plated in 96-well plates coated with PDL and laminin at 30,000 neurons per well in 200 uL medium or in 24-well coated plates with or without coverslips at 50,000 per well. Cultures were maintained at 37° C. with 5% CO2. […]
Multi-electrode arrays: As in a prior study (Voskobiynyk, et al. (2020) eLife 9, e57354), 30,000 neurons were plated per well in a 48-well MEA plate. […] 69 for one hour, then 500 nM Aβ oligomers was applied and neurons were returned to the incubator for four hours before being recorded for 20 more minutes. […] Mean baseline frequency for each well was calculated from unit frequencies, then each unit in the post-treatment recording was normalized to the baseline average of its well. […]

The subject of assay [1] is endogenous Tau-Fyn interaction. Nature of the assay: Endogenous Tau-Fyn PLA in primary neurons. As to conditions: 3 μM and 15 μM, 24 hours. The assay is classed as cell-based, rat. The protocol:
Endogenous Tau-Fyn PL, in primary neurons: All PLA protocols were adapted from our recent study (Rush, et al. (2020) Neurobiol Dis 134, 104668).
For the endogenous Tau-Fyn PLA, neurons were grown on coverslips as described above to DIV20, then treated with compound no. 69 or vehicle, and fixed with PFA 24 hours later. Dako Tau (1:1000) and Fyn15 (1:250) antibodies were used. Duolink In Situ Fluorescence kit was used for PLA. Briefly, coverslips with fixed cells were permeabilized for 10 minutes in 0.25% Triton X-100, then blocked in 5% NGS in PBS for one hour at room temperature. Coverslips were incubated overnight at 4° C. with primary antibody in 1% NGS, then washed 3×5 minutes in PBS. Coverslips were then incubated for 1 hour at 37° C. in PLA probes (Anti-Mouse minus, Anti-Rabbit plus). […] To quantify PLA puncta, PLA fluorescence was thresholded, then ImageJ particle analyzer was run, specifying size and circularity to exclude any non-punctate signal. Quantified values were then normalized to values for vehicle-treated slides from that experiment. […]

Entries after “also recorded” stand apart in the source; their conditions may differ.

Regarding `O=C(CN1CCOc2ccccc21)Nc1nnc(-c2ccccn2)[nH]1` [compound no. 69], the “Aβ-induced network hyperexcitability, multi-electrode array” value with primary neurons is “prevented Aβ-induced network8hyperexcitability at both 3 and 15 μM; also recorded: ameliorates Aβ-induced network hyperexcitability”. For the same compound, the “endogenous Tau-Fyn interaction, PLA in primary neurons” value in assay [1] is “inhibited endogenous Tau-Fyn interaction at both 3 μM and 15 μM; also recorded: reduces endogenous Tau-Fyn PLA”.
